Results taken from ChEMBL document CHEMBL1129004, “Synthesis and in vitro cytotoxicity of cis-(glycolato-O,O)-[2-substituted-(4R,5R)-4,5-bis(aminomethyl)-1,3-dioxolane]platinum (II)” (Bioorg Med Chem Lett, 1996).

Key:
Format in all cases: functional, cell-based
[1] = system: PC-14; assay: Compound was tested in vitro for cytotoxic activity against PC-14 human non-small cell lung cancer cell line by MTT assay
[2] = system: KATO III stomach cancer cell line; assay: Compound was tested in vitro for cytotoxic activity against KATO III human stomach cancer cell line by MTT assay
[3] = system: PC-9; assay: Compound was tested in vitro for cytotoxic activity against PC-9 human non-small cell lung cancer cell line by MTT assay
[4] = system: MKN-45; assay: Compound was tested in vitro for cytotoxic activity against MKN-45 human stomach cancer cell line by MTT assay

Sequence | IC50 [1] [µM] | IC50 [2] [µM] | IC50 [3] [µM] | IC50 [4] [µM]
CARBOPLATIN | 9.7 | 49.7 | 60.5 | 32.4
CISPLATIN | 1.5 | 5.2 | 5 | 3.7
